From US20240376035A1, “METHOD FOR PRODUCING HESPERETIN DIHYDROCHALCONE” (SYMRISE AG, priority 2022, published 2024)

How the values were obtained:
[1] = preparations having a high content of acid such as lemonades or fruit juices; cited from earlier work
trained expert panel = test: Sensory descriptive analysis of ice tea prototypes in different bases (Example 15); format: in vivo; settings: for ANOVA (sweetness factor score): 10 ppm hesperetin dihydrochalcone and/or 3 ppm hesperetin; for effect on the sweetness factor: main and interaction effects in different bases, all sign. p<0.0001
Source text: Based on an experimental design, 86 ice tea prototypes (drinkable preparations) were created that systematically varied regarding different sources of sweetness conveyed by sugars (e.g. HFCS (high fructose corn syrup), invert sugar syrup), sweeteners (Reb A, Reb D, Reb M, sucralose, acesulfame K) as well as hesperetin dihydrochalcone (HC) and hesperetin (HT) (the results are depicted in Table 2).
In order to investigate the effect of HT and HC on perceived sweetness dimensions, the 86 samples were profiled (sensory descriptive analysis) by a trained expert panel consisting of 12 panelists. The panelists were trained on an ice tea language with focus on sweetness attributes. Each attribute was scored on an unstructured line scale (10 cm) for its perceived intensity. To ensure high data reliability, every sample was tested twice. The sweetness attributes “sweetness onset”, “sweetness overall intensity” and “sweetness long-lastingness” were aggregated to a so-called sweetness factor using factor analysis (principal component analysis with VARIMAX rotation). The sweetness factor score runs from neg. infinity to positive infinity. By applying statistical modelling (JMP software: fit model: standard least squares, Analysis of Variance: DF 86, F 19.6907, p<0.0001; Rsquare 0.972) all significant main and two-way interaction effects were identified amongst which HC (p<0.0001), HT (p<0.0001) and the interaction of HC and HT (p<0.0001) were identified. These main and interaction effects were further tested in different bases (see table 2) using ANOVA, p<0.05; post hoc test: LSD.

[2] = Acesulfame K Ice tea Base, 60 ppm
[3] = HFCS Ice tea Base, 2 wt. % High Fructose corn syrup
[4] = Invert Sugar Syrup Ice tea Base, 2 wt. % invert sugar syrup
[5] = Reb A Ice tea Base, 60 ppm rebaudioside A
[6] = Reb A/Reb D Ice tea Base, 60 ppm rebaudioside A/60 ppm rebaudioside D
[7] = Reb A/Reb M Ice tea Base, 60 ppm rebaudioside A/45 ppm rebaudioside M
[8] = Reb M/Reb D Ice tea Base, 45 ppm rebaudioside M/60 ppm rebaudioside D
[9] = Sucralose Ice tea Base, 100 ppm sucralose

## COc1ccc([C@@H]2CC(=O)c3c(O)cc(O)cc3O2)cc1O [Hesperetin, hesperetin]
[1]
  effectivity as intensifier of the sweet flavour: diminished effectivity
Trained expert panel; [2]
  ANOVA (sweetness factor score): −2.4
Trained expert panel; [3]
  ANOVA (sweetness factor score): −3.2
Trained expert panel; [4]
  ANOVA (sweetness factor score): −3.3
Trained expert panel; [5]
  ANOVA (sweetness factor score): −2.8
Trained expert panel; [6]
  ANOVA (sweetness factor score): −2.4
Trained expert panel; [7]
  ANOVA (sweetness factor score): −2.3
Trained expert panel; [8]
  ANOVA (sweetness factor score): −2.6
Trained expert panel; [9]
  ANOVA (sweetness factor score): −3.1
Trained expert panel; Sugar Free Ice tea Base
  ANOVA (sweetness factor score): −3.6
Trained expert panel
  effect on the sweetness factor: smallest positive effect

## COc1ccc(CCC(=O)c2c(O)cc(O)cc2O)cc1O [Hesperetin dihydrochalcone]
Trained expert panel; [2]
  ANOVA (sweetness factor score): −0.1
Trained expert panel; [3]
  ANOVA (sweetness factor score): −0.9
Trained expert panel; [4]
  ANOVA (sweetness factor score): −1
Trained expert panel; [5]
  ANOVA (sweetness factor score): −0.5
Trained expert panel; [6]
  ANOVA (sweetness factor score): −0.1
Trained expert panel; [7]
  ANOVA (sweetness factor score): 0
Trained expert panel; [8]
  ANOVA (sweetness factor score): −0.3
Trained expert panel; [9]
  ANOVA (sweetness factor score): −0.8
Trained expert panel; Sugar Free Ice tea Base
  ANOVA (sweetness factor score): −1.3
Trained expert panel
  effect on the sweetness factor: positive effect
